Laboratory results from EP4682141A1, “TRICYCLIC COMPOUND” (ONO Pharmaceutical Co., Ltd., priority 2023, dated 2024).

Columns and labels:
diabetes model rat = assay: inhibitory effect on the amount of albumin excreted in urine in diabetes model rat; type: in vivo, SDT Fatty rats; conditions: urine collected for 24 hours, urine albumin/urine creatinine ratio
Description: Male SDT Fatty rats aged 6 weeks (CLEA Japan) were purchased and preliminarily bred for 1 week or more. Experiments were performed at 8 to 16 weeks of age. The animals were fed ad libitum with solid feed CRF-1 (Oriental Yeast) and watered ad libitum.
Animals were housed in metabolic cages 2 days before test substance administration, and urine was collected for 24 hours. On the day before administration of the test substance, urine albumin and urine creatinine were measured, and grouping was performed by a stratification randomization method based on the urine albumin/urine creatinine ratio (ACR) and the average value of body weights for each group.
The compounds (test substances) of Examples 9-5, 10, 11, 12, 25-7 and 32, and water for injection (Otsuka Pharmaceutical) as a vehicle were orally administered once at 5 mL/kg. The administration dose is described in Table 3.
For evaluation of the amount of albumin excreted in urine of each animal, a urine albumin/urine creatinine ratio (ACR) was measured. After administration of the test substance, the animals were housed in metabolic cages, and urine was collected for 24 hours. Each concentration of urine albumin and urine creatinine was measured using an automatic analyzer 7180 (Hitachi High-Tech), and ACR was calculated by dividing the urine albumin concentration by the urine creatinine concentration.

EP1 = target: T1, EP1 (Homo sapiens, UniProt P34995); assay: agonist activity on human EP1 receptor (intracellular calcium concentration, EP1-CHO cells); type: cell-based
T1 construct: expressed in transfected cells; host or cells: CHO (EP1-CHO)
T1 sequence (P34995 1-402): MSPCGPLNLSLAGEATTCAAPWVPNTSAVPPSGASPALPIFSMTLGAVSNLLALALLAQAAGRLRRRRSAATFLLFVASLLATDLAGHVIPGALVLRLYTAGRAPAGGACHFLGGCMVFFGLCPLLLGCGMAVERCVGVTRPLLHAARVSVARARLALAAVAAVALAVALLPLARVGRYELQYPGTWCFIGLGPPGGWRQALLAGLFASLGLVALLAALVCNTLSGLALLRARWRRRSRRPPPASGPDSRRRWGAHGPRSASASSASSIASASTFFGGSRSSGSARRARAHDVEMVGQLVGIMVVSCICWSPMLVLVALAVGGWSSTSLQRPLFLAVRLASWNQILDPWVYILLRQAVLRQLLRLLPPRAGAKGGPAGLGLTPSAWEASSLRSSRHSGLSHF
Description: Using CHO cells (EP1-CHO, EP2-CHO, EP3-Chem1, EP4-CHO and IP-CHO) on which various human prostanoid receptors were forcibly expressed, the agonist activity of the test compound on the various prostanoid receptors was examined using the intracellular calcium concentration for EP1 and EP3, and the intracellular cyclic AMP (hereinafter, abbreviated as cAMP) production amount for EP2, EP4 and IP as indices.
The test compound and control substances (PGE2 and iloprost) were dissolved in dimethyl sulfoxide (DMSO) to prepare a 10 mmol/L solution. The prepared 10 mmol/L solution was thawed at the time of use, serially diluted using DMSO, and diluted with a buffer solution 1 for measurement (Hank's balanced salt solution (Thermofischer scientific) containing 1 w/v% human serum albumin (Sigma), 2 µmol/L indomethacin (Sigma), 2.5 mmol/L probenecid, and 10 mmol/L HEPES-NaOH (pH7.4)) or a buffer solution 2 for measurement (D-PBS (Nacalai Tesque) containing 0.1 w/v% human serum albumin, 2 µmol/L diclofenac (Sigma), and 1 mmol/L 3-isobutyl-1-methylxanthine (Sigma)) to perform experiments.
The intracellular calcium concentration was measured using Calcium 6 Assay Kit (Molecular Devices). On the day before the measurement, EP1-CHO and EP3-Chem 1 were obtained by thawing the frozen cells, suspended using Ham's F-12 medium (Thermofischer scientific) containing inactivated (56°C, 30 min) 9.8 vol% FBS (Thermofischer scientific) and penicillin-streptomycin (Nacalai Tesque), seeded into a 96 well UV plate to 1.0×10^5 cells per well, and static cultured at 37°C in the presence of 5%CO2. On the day of the measurement, the medium was removed, followed by addition of 120 µL of the Calcium indication solution dissolved in the buffer solution 1 for measurement and incubation at room temperature under light-shielding for about 1 hour. After 1 hour incubation, the 96 well UV plates were set in a fluorescence spectrophotometer (FDSS-7000, Hamamatsu Photonics) to measure the intracellular calcium concentration. Thirty microliters of the buffer solution 1 for measurement containing various concentrations of agonists were added, and the mixture was reacted. The intracellular calcium concentration was measured by irradiating the cells with 480 nm excitation light and measuring the fluorescence intensity at 540 nm.

[1] = system: Alport syndrome model mice; assay: in vivo drug efficacy in Alport syndrome model mice; parameters: species or system COL4A5 homozygote knockout mice; conditions: Control-4 group: irbesartan (50 mg/kg) orally once a day for 17 weeks; 16 weeks after the start of administration
Description: The in vivo drug efficacy of the present compound on Alport syndrome was evaluated using COL4A5 (causative gene of Alport syndrome) knockout mice.
Male wild-type mice and female COL4A5 hetero knockout mice were naturally crossed to obtain offspring. Genotypes of the offspring were confirmed and male COL4A5 homozygote knockout mice were obtained.
The obtained animals were fed ad libitum with CE-2 (CLEA Japan), and watered ad libitum.
The mice were divided into groups using a statistical analysis system EXSUS10.0 so that the body weight and the urine albumin/urine creatinine value at the time of 6 weeks of age were almost uniform in each group.
The test substance and water for injection (Otsuka Pharmaceutical) as a vehicle were orally administered at 10 mL/kg once a day for 17 weeks.
The Control-3 group was orally administered water for injection at 10 mL/kg once a day for 17 weeks. In the Control-4 group, water for injection and an administration solution of irbesartan which is a renin angiotensin system inhibitor were mixed in equal amounts at 5 mL/kg each, and orally administered once a day for 17 weeks.
The administration dose is described in Table 11.
Blood collection was performed by cutting the tail vein of the mice a little with a razor and using a hematocrit capillary. Blood was centrifuged to obtain plasma. Urine was collected for about 16 hours in a metabolic cage for mouse under conditions in which a solid feed and water can be freely taken. The obtained urine sample was centrifuged, and the supernatant was subjected to measurement. Urine albumin (U-ALB) and urine creatinine (U-CRE) concentrations were measured by an automatic analyzer Hitachi 7180 (Hitachi High-Tech), and the creatinine concentration in plasma was measured using LabAssay Creatinine (Fujifilm Wako Shibayagi).

Row | SMILES | EC50 (EP1) [µM] | further results
1 | Cc1c(C(=O)O)ccc2c1O[C@H]1C[C@@H](O)[C@H](/C=C/C(O)C3(c4ccc(F)cc4)CCC3)[C@H]1CC2 (stereo partly drawn) [Example 9-5, (1R,2R,3aS,10aR)-1-{(1E,3ξ)-3-[1-(4-fluorophenyl)cyclobutyl]-3-hydroxy-1-propen-1-yl}-2-hydroxy-5-methyl-2,3,3a,9,10,10a-hexahydro-1H-benzo[b]cyclopenta[f]oxepine-6-carboxylic acid] | > 10 | ACR mean (diabetes model rat; 0.1 mg/kg orally once): 4691.4 µg/mg; ACR mean (diabetes model rat; 0.3 mg/kg orally once): 4466.2 µg/mg
2 | O=C(O)c1ccc2c(c1F)O[C@H]1C[C@@H](F)[C@H](/C=C/C(O)C3(c4ccccc4)COC3)[C@H]1CC2 (stereo partly drawn) [Example 28-2, (1R,2R,3aS,10aR)-2,5-difluoro-1-[(1E,3ξ)-3-hydroxy-3-(3-phenyl-3-oxetanyl)-1-propen-1-yl]-2,3,3a,9,10,10a-hexahydro-1H-benzo[b]cyclopenta[f]oxepine-6-carboxylic acid] | > 10 | 
3 | O=C(O)c1ccc2c(c1F)O[C@H]1C[C@@H](Cl)[C@H](/C=C/C(O)C3(c4ccccc4F)COC3)[C@H]1CC2 (stereo partly drawn) [Example 32, (1R,2R,3aS,10aR)-2-chloro-5-fluoro-1-{(1E,3ξ)-3-[3-(2-fluorophenyl)-3-oxetanyl]-3-hydroxy-1-propen-1-yl}-2,3,3a,9,10,10a-hexahydro-1H-benzo[b]cyclopenta[f]oxepine-6-carboxylic acid] | > 10 | ACR mean (diabetes model rat; 0.03 mg/kg orally once): 3391 µg/mg; ACR mean (diabetes model rat; 0.1 mg/kg orally once): 3086.1 µg/mg
4 | O=C(O)c1ccc2c(c1F)O[C@H]1C[C@@H](Cl)[C@H](/C=C/C(O)C3(c4ccccc4)CCO3)[C@H]1CC2 (stereo partly drawn) [Example 32-6, (1R,2R,3aS,10aR)-2-chloro-5-fluoro-1-{(1E,3ξ)-3-hydroxy-3-[(2ξ)-2-phenyl-2-oxetanyl]-1-propen-1-yl}-2,3,3a,9,10,10a-hexahydro-1H-benzo[b]cyclopenta[f]oxepine-6-carboxylic acid] | > 10 | 
5 | CCCC[C@H](C)C(O)/C=C/[C@H]1OC[C@@H]2Oc3c(ccc(C(=O)O)c3C)CC[C@@H]21 (stereo partly drawn) [Example 41, (1R,3aR,10aR)-1-[(1E,3ξ,4S)-3-hydroxy-4-methyl-1-octen-1-yl]-5-methyl-1,3,3a,9,10,10a-hexahydrofuro[3,4-b][1]benzoxepine-6-carboxylic acid] | > 10 | 
6 | Cc1c(C(=O)O)ccc2c1O[C@H]1CO[C@H](/C=C/C(O)C3(Oc4ccccc4)CCC3)[C@H]1CC2 (stereo partly drawn) [Example 41-2, (1R,3aR,10aR)-1-[(1E,3ξ)-3-hydroxy-3-(1-phenoxycyclobutyl)-1-propen-1-yl]-5-methyl-1,3,3a,9,10,10a-hexahydrofuro[3,4-b][1]benzoxepine-6-carboxylic acid] | > 10 | 
7 | CCCCC1=NC2(CCCC2)C(=O)N1Cc1ccc(-c2ccccc2-c2nnn[nH]2)cc1 [Irbesartan, irbesartan, reference compound] |  | Plasma creatinine mean [1]: 0.771 mg/dL; Urine Albumin/ Urine Creatinine Ratio mean [1]: 31414.47 mg/g
